# Measurements taken from PMC10511884 (Frontiers in Chemistry, 2023).
# What was measured:
# COX-1 = target: T1, COX-1 (Ovis aries, UniProt P05979); test: In vitro COX-1 enzyme inhibitory assay; format: biochemical, sheep; conditions: mean ± SEM; n = 3
# T1 construct: purchased Sigma-Aldrich C0733-5000UN
# T1 sequence (P05979 25-600): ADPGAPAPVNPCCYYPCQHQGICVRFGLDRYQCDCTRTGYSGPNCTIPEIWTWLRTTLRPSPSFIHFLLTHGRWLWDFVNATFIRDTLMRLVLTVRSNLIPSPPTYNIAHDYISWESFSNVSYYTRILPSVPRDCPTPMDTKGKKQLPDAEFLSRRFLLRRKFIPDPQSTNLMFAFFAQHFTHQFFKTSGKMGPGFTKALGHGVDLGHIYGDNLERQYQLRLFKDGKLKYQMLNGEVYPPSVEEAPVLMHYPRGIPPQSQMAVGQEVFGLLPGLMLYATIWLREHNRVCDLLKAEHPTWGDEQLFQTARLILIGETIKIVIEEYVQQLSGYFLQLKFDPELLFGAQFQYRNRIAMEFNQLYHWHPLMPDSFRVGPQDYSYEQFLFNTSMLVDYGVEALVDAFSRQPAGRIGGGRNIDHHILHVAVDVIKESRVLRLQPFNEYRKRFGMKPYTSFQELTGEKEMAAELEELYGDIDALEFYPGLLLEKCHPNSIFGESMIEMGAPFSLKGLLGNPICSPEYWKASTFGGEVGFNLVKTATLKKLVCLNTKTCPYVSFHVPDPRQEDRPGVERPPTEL
# Procedure: (§1) In a nutshell, the test specimens were made in progressively higher concentrations. Furthermore, enzyme solutions for COX-1 from a sheep source (CAT: C0733-5000UN, Sigma-Aldrich) and COX-2 from a human recombinant source (CAT: C0858) were developed. COX-1 has a concentration of 0.7–0.8 g/L, whereas COX-2 has a concentration of 300 units/mL. […] The COX-2 enzyme solution was primed at 300 U/mL levels. 10 μL of the enzyme solution was kept on ice (4°C) for 5–6 min before 50 µL of the required co-factor solution was added. This solution contains 1 mM hematin in a 0.1 M Tris-buffer with pH 8.0, 0.24 mM tetramethyl-p-phenylenediamine dihydrochloride (TMPD), and 0.9 mM glutathione. Then, for the next 5–10 min, the enzyme solution (60 µL) and experiment samples (20 µL) of different strengths has been kept at the normal temperature. Similar to that, 20 µL of 30 mM arachidonic acid was utilized to start the procedure. The mixture’s temperature was held at 37°C for an additional 15 min. A UV-visible spectrophotometer was used to determine the absorbance at 570 nm after which the process was halted by adding HCl. Using the absorbance value per unit time, the percentage of COX-2 inhibition was computed. Celecoxib served as the standard control in the present study.
# COX-2 = target: T2, COX-2 (Homo sapiens, UniProt P35354); test: In vitro COX-2 enzyme inhibitory assay; format: biochemical; conditions: mean ± SEM; n = 3
# T2 construct: purchased Sigma-Aldrich C0858
# T2 sequence (P35354 18-604): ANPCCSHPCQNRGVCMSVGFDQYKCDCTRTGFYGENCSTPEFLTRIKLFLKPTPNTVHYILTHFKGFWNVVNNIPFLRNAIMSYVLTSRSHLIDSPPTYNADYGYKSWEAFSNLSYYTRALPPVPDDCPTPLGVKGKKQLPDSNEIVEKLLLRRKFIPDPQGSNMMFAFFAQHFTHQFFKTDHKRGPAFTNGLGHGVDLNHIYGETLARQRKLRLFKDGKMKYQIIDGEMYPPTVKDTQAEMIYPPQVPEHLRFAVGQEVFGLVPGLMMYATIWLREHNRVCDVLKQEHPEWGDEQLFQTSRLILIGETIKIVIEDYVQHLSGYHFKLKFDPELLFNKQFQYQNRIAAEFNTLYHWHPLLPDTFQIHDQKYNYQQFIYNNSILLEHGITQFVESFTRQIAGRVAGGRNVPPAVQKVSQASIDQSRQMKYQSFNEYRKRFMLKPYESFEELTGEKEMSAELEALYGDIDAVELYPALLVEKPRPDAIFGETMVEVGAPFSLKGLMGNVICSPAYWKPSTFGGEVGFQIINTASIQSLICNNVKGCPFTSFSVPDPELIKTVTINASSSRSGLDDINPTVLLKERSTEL
# Procedure: as §1
IC50 (COX-1) [µM],IC50 (COX-2) [µM],Compound
239 ± 2.3,2.52 ± 0.02,"Cc1cc(C2=C(C(F)(F)F)NC(=O)NC2c2ccccc2)no1 (centres unmarked) [Compound C1, 5-(5-methylisoxazol-3-yl)-4-phenyl-6-(trifluoromethyl)-3,4-dihydropyrimidin-2(1H)-one]"
172 ± 1.9,2.43 ± 0.05,"COc1ccc(C2NC(=O)NC(C(F)(F)F)=C2c2cc(C)on2)cc1 (centres unmarked) [Compound C2, 4-(4-methoxyphenyl)-5-(5-methylisoxazol-3-yl)-6-(trifluoromethyl)-3,4-dihydro-pyrimidin-2(1H)-one]"
22.6 ± 0.9,0.93 ± 0.01,"COc1ccc(C2NC(=O)NC(C(F)(F)F)=C2c2cc(-c3ccccc3)on2)cc1O (centres unmarked) [Compound C3, 4-(3-hydroxy-4-methoxyphenyl)-5-(5-phenylisoxazol-3-yl)-6-(trifluoromethyl)-3,4-dihydropyrimidin-2(1H)-one]"
66.8 ± 1.84,8.27 ± 0.2,"COc1ccc(C2NC(=O)NC(C(F)(F)F)=C2c2cc(-c3ccc(-c4ccccc4)cc3)on2)cc1 (centres unmarked) [Compound C4, 5-(5-([1,1′-biphenyl]-4-yl)isoxazol-3-yl)-4-(4-methoxyphenyl)-6-(trifluoromethyl)-3,4-dihydropyrimidin-2(1H)-one]"
35.5 ± 1.49,0.85 ± 0.04,"O=C1NC(C(F)(F)F)=C(c2cc(-c3ccco3)on2)C(c2ccco2)N1 (centres unmarked) [Compound C5, 4-(furan-2-yl)-5-(5-(furan-2-yl)isoxazol-3-yl)-6-(trifluoromethyl)-3,4-dihydropyrimidin-2(1H)-one]"
34 ± 1.31,0.55 ± 0.03,"COc1ccc(C2NC(=O)NC(C(F)(F)F)=C2c2cc(-c3ccco3)on2)cc1 (centres unmarked) [Compound C6, 5-(5-(furan-2-yl)isoxazol-3-yl)-4-(4-methoxyphenyl)-6-(trifluoromethyl)-3,4-dihydro-pyrimidin-2(1H)-one]"
83.8 ± 0.96,0.74 ± 0.1,"O=C1NC(C(F)(F)F)=C(c2cc(-c3ccco3)on2)C(c2ccc(C(F)(F)F)cc2)N1 (centres unmarked) [Compound C7, 5-(5-(furan-2-yl)isoxazol-3-yl)-6-(trifluoromethyl)-4-(4-(trifluoromethyl)phenyl)-3,4-dihydropyrimidin-2(1H)-one]"
91.19 ± 0.51,0.79 ± 0.05,"Cc1ccc(C2NC(=O)NC(C(F)(F)F)=C2c2cc(-c3ccco3)on2)cc1 (centres unmarked) [Compound C8, 5-(5-(furan-2-yl)isoxazol-3-yl)-4-p-tolyl-6-(trifluoromethyl)-3,4-dihydropyrimidin-2(1H)-one]"
101 ± 1.17,1.7 ± 0.1,"O=C1NC(C(F)(F)F)=C(c2cc(-c3ccncc3)on2)C(c2ccccc2)N1 (centres unmarked) [Compound C9, 4-phenyl-5-(5-(pyridin-4-yl)isoxazol-3-yl)-6-(trifluoromethyl)-3,4-dihydropyrimidin-2(1H)-one]"
61.9 ± 1.11,20 ± 0.4,"O=C1NC(C(F)(F)F)=C(c2cc(-c3ccncc3)on2)C(c2ccncc2)N1 (centres unmarked) [Compound C10, 4-(Pyridin-4-yl)-5-(5-(pyridin-4-yl)isoxazol-3-yl)-6-(trifluoromethyl)-3,4 dihydropyrimidin-2(1H)-one]"
